Laboratory results reported in patent US9452154B2, “Methods for treating HCV” (Gilead Sciences, Inc., priority 2010, dated 2016).

What was measured:
HCV genotype 1a replicon [1] = test: Biological Example 3: HCV genotype 1a replicon assay, EC50; assay type: cell-based; conditions: Hepatitis C virus, 72 h, 3 days, read-out: EC50
Method: The HCV genotype 1a replicon cell line used in this study was described previously. The cells were grown in cell culture medium containing Dulbecco's Modified Eagle Medium (DMEM) with GlutaMAX (Gibco, Carlsbad, Calif., Cat#10569-044), supplemented with 10% FBS (HyClone, Logan, Utah, Cat#SH30071.03), 100 Units/mL Penicillin, 100 μg/mL Streptomycin (Gibco, Carlsbad, Calif., Cat#15140-122), and 0.1 mM non-essential amino acids (Gibco, Carlsbad, Calif., Cat#11140-050). Replicon cells were maintained in 0.5 mg/mL Geneticin (Invitrogen, Carlsbad, Calif., Cat#10131-035) to prevent the loss of HCV replicon. The cells were passaged every 3-4 days before reaching confluency.
(§1) [formula] where XC is the fluorescence signal from the compound-treated well; MB is the average fluorescence signal from puromycin-treated wells; MD is the average fluorescence signal from DMSO-treated wells. The anti-HCV replication activity was determined by the luminescence signal generated from the reporter renilla luciferase of the HCV replicon. The percent inhibition on HCV replicon was calculated using equation 1, where XC is the luminescence signal from compound-treated well; MB is average luminescence signal from the ITMN-191-treated wells; MD is the average luminescence signal from DMSO-treated wells.
(§2) Both CC50 and EC50 values were obtained using Pipeline Pilot 5.0 software package (Accelrys, San Diego, Calif.) by nonlinear regression fitting of experimental data to equation 2: […]

GT-1b Huh-lunet cells = test: Biological Example 4: antiviral combination studies with Compound 5 (MacSynergy II); assay type: cell-based, HCV; conditions: in combination with Compound 5, 1b replicon cells
HCV 1b replicon system = test: Biological Example 5: antiviral combination studies with Compound 6 (MacSynergy II); assay type: cell-based; conditions: in combination with Compound 6
[2] = test system: Huh-7 cells carrying a HCV genotype 1a replicon; test: Biological Example 3: cytotoxicity in combination studies (MacSynergy II); conditions: in combination with Compound 4
HCV genotype 1a replicon [3] = test: Biological Example 3: antiviral combination studies with Compound 4 (MacSynergy II); conditions: in combination with Compound 4
[4] = Biological Example 3: cytotoxicity (calcein AM), CC50; assay type: cell-based; conditions: human, Huh-7 cells carrying a HCV genotype 1a replicon; HCV genotype 1a replicon cells; calcein AM
Method: The HCV replicon assay was a multiplex assay which can assess both cytotoxicity and anti-replicon activity from the same well. The CC50 assay was performed first.
The cytotoxicity effect was determined by calcein AM conversion to fluorescent product. The percent cytotoxicity was calculated by equation 1:
as §1, §2

SMILES: COc1ccc2c(O[C@@H]3C[C@H]4C(=O)N[C@]5(P(=O)(O)Cc6c(F)cccc6F)C[C@H]5CCCCCCC[C@H](NC(=O)OC5CCCC5)C(=O)N4C3)cc(-c3csc(NC(C)C)n3)nc2c1Cl [Compound 2, (2R,6S,13aR,14aS,16aS)-2-(8-chloro-2-(2-(isopropylamino)thiazol-4-yl)-7-methoxyquinolin-4-yloxy)-6-(cyclopentyloxycarbonylamino)-5,16-dioxooctadecahydrocyclopropa[e]pyrrolo[1,2-a][1,4]diazacyclopentadecin-14a-yl(2,6-difluorobenzyl)phosphinic acid]
- EC50 (HCV genotype 1a replicon [1]): 496 ± 135 nM
- Interaction (GT-1b Huh-lunet cells): Additive
- Synergy Volume (GT-1b Huh-lunet cells): 22 ± 12 nM^2
- Interaction (HCV 1b replicon system): Moderate Synergy
- Antagonism Volume (cytotoxicity) [2]: 0 ± 0 nM^2%
- Interaction (cytotoxicity) [2]: Additivity (Additivity: ≦25 and >−25 nM^2%)
- Synergy Volume (cytotoxicity) [2]: 17 ± 14 nM^2%
- Antagonism Volume (HCV genotype 1a replicon [3]): −2 ± 3 nM^2%
- Interaction (HCV genotype 1a replicon [3]): Additivity (Additivity: ≦25 and >−25 nM^2%)
- Synergy Volume (HCV genotype 1a replicon [3]): 22 ± 14 nM^2%
- CC50 at 3 days [4]: > 22200 nM
